For test [1], the target named is T1, LATS1 (Homo sapiens, UniProt O95835).
T1 construct: purchased Carna Biosciences
T1 sequence (O95835 1-1130): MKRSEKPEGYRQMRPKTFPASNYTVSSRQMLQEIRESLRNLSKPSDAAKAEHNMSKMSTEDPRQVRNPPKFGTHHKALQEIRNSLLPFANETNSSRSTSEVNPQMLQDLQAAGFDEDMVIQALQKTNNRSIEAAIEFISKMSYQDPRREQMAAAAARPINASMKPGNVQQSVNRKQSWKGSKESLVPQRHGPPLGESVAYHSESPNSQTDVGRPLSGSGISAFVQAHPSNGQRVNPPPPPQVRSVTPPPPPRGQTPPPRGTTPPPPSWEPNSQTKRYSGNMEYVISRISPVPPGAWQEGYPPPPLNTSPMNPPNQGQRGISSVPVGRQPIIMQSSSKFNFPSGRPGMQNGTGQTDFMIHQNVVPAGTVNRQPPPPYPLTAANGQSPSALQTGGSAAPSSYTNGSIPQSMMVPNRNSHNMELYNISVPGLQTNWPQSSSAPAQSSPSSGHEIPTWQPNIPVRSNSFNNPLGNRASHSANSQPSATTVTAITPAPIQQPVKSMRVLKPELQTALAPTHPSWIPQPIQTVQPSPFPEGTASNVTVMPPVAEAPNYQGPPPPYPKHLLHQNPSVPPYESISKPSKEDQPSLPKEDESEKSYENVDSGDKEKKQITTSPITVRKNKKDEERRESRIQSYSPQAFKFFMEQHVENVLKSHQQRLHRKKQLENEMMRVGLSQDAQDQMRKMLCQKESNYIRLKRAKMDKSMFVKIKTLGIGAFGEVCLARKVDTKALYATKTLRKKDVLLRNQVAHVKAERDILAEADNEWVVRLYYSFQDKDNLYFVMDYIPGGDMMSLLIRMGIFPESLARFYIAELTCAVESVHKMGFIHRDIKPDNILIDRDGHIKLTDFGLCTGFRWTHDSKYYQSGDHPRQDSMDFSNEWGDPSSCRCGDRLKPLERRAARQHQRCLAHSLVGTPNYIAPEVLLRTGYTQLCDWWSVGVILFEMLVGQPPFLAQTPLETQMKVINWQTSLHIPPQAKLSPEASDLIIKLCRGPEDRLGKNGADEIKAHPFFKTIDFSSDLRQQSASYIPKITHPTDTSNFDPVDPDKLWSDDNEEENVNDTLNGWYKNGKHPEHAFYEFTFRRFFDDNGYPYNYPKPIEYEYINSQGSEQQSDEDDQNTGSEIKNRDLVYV
The test is described as follows: Kinase inhibitory activity against LATS1 (ADP quantification). The format is biochemical. The following applies: ATP 400 μM, read-out: kinase inhibitory rate; for inhibition at 0.1 µM: final concentration 100 nM; for inhibition at 1 µM: final concentration 1000 nM. On the procedure: (§1) Evaluation of the inhibitory activity (calculation of kinase inhibitory rate) of the compound of the present invention against LATS1 and LATS2 (manufactured by Carna Biosciences) was performed. The activity was measured using the Kinase Assay method described below. The test concentration of the compound of the present invention was set such that the final concentration was 100 nM or 1000 nM.
(§2) As the analysis method of the data, the mean signal of the control well containing reaction components other than the compound of the present invention was set to 0% inhibition, the mean signal without enzyme addition was set to 100% inhibition, and the inhibition rate was calculated from the mean signal of 2 wells of each compound.
(§3) 2 μL of a compound of the present invention solution at 2.5-fold concentration, 1 μL of substrate at 5-fold concentration (SGKtide: NH2-CKKRNRRLSVA-COOH, manufactured by SignalChem), ATP (manufactured by Sigma-Aldrich), MgCl2 (manufactured by FUJIFILM Wako Pure Chemical Corporation) solution (final concentration 10 μM, 400 μM and 5 mM, respectively), and 2 μL of kinase solution at 2.5-fold concentration (final concentration of LATS1 or LATS2 5 μg/mL), each prepared with assay buffer (20 mM HEPES, 0.01% Triton X-100, 2 mM DTT, 50 μg/mL BSA, pH 7.5), were mixed in the wells of a polypropylene 384-well plate (manufactured by Greiner Bio-One, #784900) and reacted at room temperature for 5 hr. To the solution was added 5 μL detection solution [Fluorospark (registered trade mark) Kinase/ADP Multi-Assay Kit; manufactured by FUJIFILM Wako Pure Chemical Corporation], and the mixture was reacted at room temperature for 30 min. Successively, 5 μL of a reaction quenching liquid [Fluorospark (registered trade mark) Kinase/ADP Multi-Assay Kit; manufactured by FUJIFILM Wako Pure Chemical Corporation] was added to discontinue the reaction. Thereafter, the ADP concentration of the reaction solution was quantified by EnSpire (manufactured by PerkinElmer) to detect the kinase reaction.

Test [2] deals with T2, LATS2 (Homo sapiens, UniProt Q9NRM7).
T2 construct: purchased Carna Biosciences
T2 sequence (Q9NRM7 1-1088): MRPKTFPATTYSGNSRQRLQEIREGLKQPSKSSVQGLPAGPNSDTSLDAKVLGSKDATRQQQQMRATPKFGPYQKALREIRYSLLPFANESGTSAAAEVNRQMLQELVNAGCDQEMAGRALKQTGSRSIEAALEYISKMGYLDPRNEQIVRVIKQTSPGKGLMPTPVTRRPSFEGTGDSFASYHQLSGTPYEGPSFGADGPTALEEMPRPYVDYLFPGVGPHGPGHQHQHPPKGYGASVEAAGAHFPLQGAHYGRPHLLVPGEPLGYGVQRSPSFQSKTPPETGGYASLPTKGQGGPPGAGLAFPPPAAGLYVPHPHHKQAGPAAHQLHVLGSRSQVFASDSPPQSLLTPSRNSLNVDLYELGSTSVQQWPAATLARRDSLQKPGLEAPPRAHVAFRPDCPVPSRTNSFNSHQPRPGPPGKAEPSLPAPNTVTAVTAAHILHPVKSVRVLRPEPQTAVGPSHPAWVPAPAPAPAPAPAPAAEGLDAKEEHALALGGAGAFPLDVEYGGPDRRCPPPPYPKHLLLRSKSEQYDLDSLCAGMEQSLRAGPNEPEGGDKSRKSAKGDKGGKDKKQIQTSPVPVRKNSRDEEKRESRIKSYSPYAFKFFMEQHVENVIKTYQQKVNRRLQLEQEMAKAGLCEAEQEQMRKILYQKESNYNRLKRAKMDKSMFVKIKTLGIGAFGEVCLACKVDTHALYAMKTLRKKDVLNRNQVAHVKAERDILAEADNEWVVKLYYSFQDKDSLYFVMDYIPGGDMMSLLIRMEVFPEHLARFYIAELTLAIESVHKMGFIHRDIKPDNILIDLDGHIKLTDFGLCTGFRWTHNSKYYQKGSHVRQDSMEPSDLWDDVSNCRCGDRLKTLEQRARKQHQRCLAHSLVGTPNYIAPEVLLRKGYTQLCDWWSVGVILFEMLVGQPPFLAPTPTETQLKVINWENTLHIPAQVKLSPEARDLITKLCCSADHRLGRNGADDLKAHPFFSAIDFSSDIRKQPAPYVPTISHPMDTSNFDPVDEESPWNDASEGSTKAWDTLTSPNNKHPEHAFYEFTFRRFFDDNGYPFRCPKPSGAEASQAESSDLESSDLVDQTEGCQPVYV
Nature of the test: Kinase inhibitory activity against LATS2 (ADP quantification). The format is biochemical. The following applies: ATP 400 μM, read-out: kinase inhibitory rate; for inhibition at 0.1 µM: final concentration 100 nM; for inhibition at 1 µM: final concentration 1000 nM. On the procedure:
as §1, §2, §3

The test system of test [3] is YAP. The test is described as follows: YAP phosphorylation inhibitory action in SKOV3 (HTRF). The format is cell-based, human. Conditions: 10 μM, 1 hr, non-treatment 100%. On the procedure: Human ovarian cancer cell line SKOV3 (manufactured by DS Pharma Biomedical Co., Ltd.) was precultured using a 15% FBS-containing McCoy's 5a medium (manufactured by Sigma-Aldrich) (single layer culture). The above-mentioned cells in the logarithmic growth phase were washed with PBS. A 0.25% (w/v) trypsin-1 mmol/L ethylenediaminetetraacetic acid (EDTA) solution (manufactured by FUJIFILM Wako Pure Chemical Corporation) was added and the adherent cells were incubated at 37° C. for 3 min and detached. The above-mentioned medium was added, and the cells were centrifuged and resuspended in the same medium.
According to the method of patent document 1 (WO 2014/017513), a composition of 10% FBS-containing DMEM medium (Phenol-red free, manufactured by FUJIFILM Wako Pure Chemical Corporation) containing 0.015% (w/v) deacylated gellan gum (KELCOGEL CG-LA, manufactured by SANSHO Co., Ltd.) was prepared using FCeM-series Preparation Kit (manufactured by FUJIFILM Wako Pure Chemical Corporation). Then, various cells prepared above were suspended in the above-mentioned medium composition (3D culture conditions) added with deacylated gellan gum or a medium without the addition (2D culture conditions), and seeded on a 50 μL/well (manufactured by Corning Incorporated, a 96 well flat bottom plate, #3585, 2D culture conditions) or 25 μL/well (manufactured by Corning Incorporated, 96 well low adhesion flat bottom plate, #3474) at 100000 cells/well. The plate was allowed to stand at 37° C. in a 5% CO2 incubator, and the compound of the present invention diluted with the medium at 2 or 6 times the final concentration, DMSO, or the medium alone was added to the plate 3 hr after the seeding at 50 μL/well (2D culture conditions) or 5 μL/well (3D culture conditions) to make the final concentration of each compound 10 μM. After culture at 37° C. in a 5% CO2 incubator for 1 hr, the supernatant was aspirated, supplemented Lysis buffer (1-fold concentration, manufactured by Cisbio, YAP-total kit or YAP phospho-S27 kit) (50 μL) was added under 2D culture conditions, and supplemented Lysys buffer (4-fold concentration) (10 μL) was added to the culture supernatant under 3D conditions, and the mixture was stirred by a plate shaker for 30 min. Thereafter, the plate was centrifuged, 16 μL of the supernatant was transferred to a 384-well white plate (Corning, #4512), and each antibody solution (pYAP d2 antibody or Total-YAP d2 antibody, and pYAP Cryptate antibody or Total-YAP Cryptate antibody) included in the kit was added at 4 μL/well in total, and the mixture was allowed to stand at room temperature overnight. As a blank control, pYAP Cryptate antibody or Total-YAP Cryptate antibody alone was added to cells free of stimulation with compound and the mixture was treated in the same manner. The next day, the wavelengths at 665 nm and 615′ nm were measured in the HTRF mode of EnVision (manufactured by PerkinElmer).
The obtained signal was calculated as follows. Ratio=signal (665 nm)/signal (615 nm)×10000, ΔR=Signal(Ratio)−Background fluorescence, and the relative phosphorylated YAP amount or total YAP amount for each compound when ΔR of the compound non-addition group (non-treatment) is 100% is shown in Tables 7 and 8 (2D culture), and Tables 9 and 10 (3D culture). From the results, it was shown that the compound of the present zo invention has a YAP phosphorylation inhibitory action under both 2D and 3D culture conditions.
For orientation: In TR-FRET formats the signal depends on donor and acceptor labels being close together.

Some results are limits rather than exact numbers.

Turning to `CC/C(=N\NC(=O)CNc1ccccn1)c1ccc(O)c(C)c1O` [A-001, (E)-N′-(1-(2,4-dihydroxy-3-methylphenyl)propylidene)-2-(pyridin-2-ylamino)acetohydrazide], the inhibition at 0.1 µM in test [1] and in test [2] was not below 40% throughout. Also, the inhibition at 1 µM in test [1] and in test [2] was not below 40% each time.
For the molecule `CC/C(=N\NC(=O)CNc1cccnc1)c1ccc(O)c(C)c1O` [A-002], the entries for the “phosphorylated YAP amount (%)” value in test [3] (2D culture conditions) and in test [3] (3D culture conditions) were 50% and 78%, respectively. Besides, the “total YAP amount (%)” value in test [3] (2D culture conditions) was 85%; in test [3] (3D culture conditions), 100%.
Turning to `CC/C(=N\NC(=O)C(CC)Nc1cccnc1)c1ccc(O)c(C)c1O` (stereo not drawn) [A-005], in test [3] (2D culture conditions), the “phosphorylated YAP amount (%)” value was 27% and the “total YAP amount (%)” value is recorded as 94%. Also, in test [3] (3D culture conditions), the “phosphorylated YAP amount (%)” value worked out at 30% and the “total YAP amount (%)” value was 102%.
On the same counts, the results for `CC/C(=N\NC(=O)[C@@H](C)Nc1cncc(F)c1)c1ccc(O)c(C)c1O` [A-007R] are 8%, 98%, 15% and 108%.
Taken in the same sequence, the figures for `CC/C(=N\NC(=O)[C@@H](C)Nc1ccc(F)nc1)c1ccc(O)c(C)c1O` [A-010] were 11%, 94%, 20% and 114%.
On the same counts, the results for `CC/C(=N\NC(=O)[C@@H](C)Nc1cncc(Cl)c1)c1ccc(O)c(C)c1O` [A-011] are 46%, 91%, 55% and 98%.
In the case of `CC/C(=N\NC(=O)[C@@H](C)Nc1ccc(Cl)nc1)c1ccc(O)c(C)c1O` [A-012], in test [3] (2D culture conditions), the “phosphorylated YAP amount (%)” value amounted to 19% and the “total YAP amount (%)” value was 87%. Moreover, in test [3] (3D culture conditions), the “phosphorylated YAP amount (%)” value is listed as 23% and the “total YAP amount (%)” value amounted to 103%.
On the same counts, the results for `CC/C(=N\NC(=O)[C@@H](C)Nc1cncc(C(F)(F)F)c1)c1ccc(O)c(C)c1O` [A-013] are 42%, 91%, 49% and 96%.
For the molecule `CC/C(=N\NC(=O)[C@@H](C)Nc1cncnc1)c1ccc(O)c(C)c1O` [A-017, (R,E)-N′-[1-(2,4-dihydroxy-3-methylphenyl)propylidene]-2-(pyrimidin-5-ylamino)propanehydrazide], in test [1], the inhibition at 0.1 µM was not below 40% and the inhibition at 1 µM was not below 40%. Further, in test [2], the inhibition at 0.1 µM is not below 40% and the inhibition at 1 µM is not below 40%.
